We go through 13 compounds from patent publication US20260297085A1, “1 H-PYRROLO[2,3-B]PYRIDIN-4-YL]-2-OXOPYRROLIDINE-3-CARBONITRILE DERIVATIVES AS TYROSINE KINASE 2 (TYK2) INHIBITORS FOR THE TREATMENT OF INFLAMMATORY DISEASES” (BIOGEN MA INC., priority 2023, published 2026).

As a reminder, the IC50 is the concentration that inhibits the measured activity by half.

For assay [1], the target named is T1, human TYK2 kinase domain (JH1) (Homo sapiens, UniProt P29597).
T1 construct: recombinantly generated catalytic kinase (also known as JH1) domain of human JAK1, JAK2, JAK3 and TYK2
T1 sequence (P29597 897-1176 limits assumed): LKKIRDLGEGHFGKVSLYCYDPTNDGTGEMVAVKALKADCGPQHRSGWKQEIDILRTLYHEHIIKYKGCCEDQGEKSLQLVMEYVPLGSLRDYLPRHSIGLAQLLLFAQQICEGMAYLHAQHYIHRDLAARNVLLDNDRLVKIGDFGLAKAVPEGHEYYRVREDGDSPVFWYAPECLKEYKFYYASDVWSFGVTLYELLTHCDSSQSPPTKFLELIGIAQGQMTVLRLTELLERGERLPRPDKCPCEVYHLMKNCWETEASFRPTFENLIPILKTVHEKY
The assay is described as follows: JH1 biochemical assay for TYK2 (ADP-Glo kinase assay, recombinant JH1 catalytic domain, JAK3-974 peptide, 10 μM ATP). The note with it: TYK2 JH1, ADP-Glo. The procedure, abridged:
(§1)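 Enzyme levels: JAK1 4 nM, JAK2 0.2 nM, JAK3 0.3 nM, TYK2 2 nM. Peptide substrate at 50 μM. Reactions ran 100 minutes; ADP formed was converted to luciferase luminescence after ATP depletion. Compounds tested from 10 μM or 1 μM top, 11-point 3-fold dilutions; IC50 from 4-parameter logistic fit of normalized percent activity.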
In general terms: ADP-Glo turns the ADP formed in a reaction into a luminescent signal.

Assay [2] concerns the target T2, human JAK1 kinase domain (JH1) (Homo sapiens, UniProt P23458).
T2 construct: recombinantly generated catalytic kinase (also known as JH1) domain of human JAK1, JAK2, JAK3 and TYK2
The assay can be described thus: JH1 biochemical assay for JAK1 (ADP-Glo kinase assay, recombinant JH1 catalytic domain, JAK3-342 peptide, 35 μM ATP). The note with it: JAK1 JH1, ADP-Glo. The procedure, abridged:
as §1

Assay [3] concerns the target T3, human JAK2 kinase domain (JH1) (Homo sapiens, UniProt O60674).
T3 construct: recombinantly generated catalytic kinase (also known as JH1) domain of human JAK1, JAK2, JAK3 and TYK2
The assay is described as follows: JH1 biochemical assay for JAK2 (ADP-Glo kinase assay, recombinant JH1 catalytic domain, JAK3-974 peptide, 15 μM ATP). The settings on record: JAK2 JH1, ADP-Glo. The procedure, abridged: as §1

For assay [4], the target named is T4, human JAK3 kinase domain (JH1) (Homo sapiens, UniProt P52333).
T4 construct: recombinantly generated catalytic kinase (also known as JH1) domain of human JAK1, JAK2, JAK3 and TYK2
The assay is described as follows: JH1 biochemical assay for JAK3 (ADP-Glo kinase assay, recombinant JH1 catalytic domain, JAK3-974 peptide, 4 μM ATP). The settings on record: JAK3 JH1, ADP-Glo. The procedure, abridged:
as §1

For assay [5], the target named is Tyk2 kinase activity on STAT4 in NK92 cells (Homo sapiens, UniProt P29597). The assay can be described thus: pSTAT4 cell assay (MSD; NK92 cells, 30 ng/mL IL2 stimulation). It is filed as cell-based. The settings on record: 30 ng/mL IL2, 15 minutes. The procedure, abridged:
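IC50 values come from 4-parameter logistic fits of normalized percent activity. Phospho-STAT was read by MSD (anti-STAT4 antibodies) in NK92 lysates after a 15 min stimulation with 30 ng/mL IL2. The serum-starved cells had been given compound for 1 h (10 points, four-fold, top 10 μM).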

The target of assay [6] is JAK2 kinase activity on STAT5 in TF1 cells (Homo sapiens, UniProt O60674). The assay can be described thus: pSTAT5 cell assay (MSD; TF1 cells, 30 ng/mL IL-3 stimulation). In kind it is cell-based. The note with it: 30 ng/mL IL-3, 15 minutes. The procedure, abridged:
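IC50 from a 4-parameter logistic fit of normalized pSTAT5 signal, measured by MSD in lysates of TF1 cells. Cells were serum-starved, exposed to compound for 1 h (top concentration 10 μM, four-fold, 10 points), then given IL-3 at 30 ng/mL for 15 min.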

Assay [7] concerns the target JAK1 kinase activity on STAT3 in TF1 cells (Homo sapiens, UniProt P23458). The assay is described as follows: pSTAT3 cell assay (MSD; TF1 cells, 30 ng/mL IL-6 stimulation). It is filed as cell-based. The settings on record: 30 ng/mL IL-6, 15 minutes. The procedure, abridged: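 Serum starvation, 1 h compound (10 pt, 4-fold from 10 μM), IL-6 15 min, lysis. pSTAT3 read by MSD immunoassay, anti-STAT3 Abs. Normalized % activity vs log[cpd], 4-PL fit → IC50.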

Chain of Tyk2 kinase activity on STAT4 in NK92 cells (P29597 whole entry): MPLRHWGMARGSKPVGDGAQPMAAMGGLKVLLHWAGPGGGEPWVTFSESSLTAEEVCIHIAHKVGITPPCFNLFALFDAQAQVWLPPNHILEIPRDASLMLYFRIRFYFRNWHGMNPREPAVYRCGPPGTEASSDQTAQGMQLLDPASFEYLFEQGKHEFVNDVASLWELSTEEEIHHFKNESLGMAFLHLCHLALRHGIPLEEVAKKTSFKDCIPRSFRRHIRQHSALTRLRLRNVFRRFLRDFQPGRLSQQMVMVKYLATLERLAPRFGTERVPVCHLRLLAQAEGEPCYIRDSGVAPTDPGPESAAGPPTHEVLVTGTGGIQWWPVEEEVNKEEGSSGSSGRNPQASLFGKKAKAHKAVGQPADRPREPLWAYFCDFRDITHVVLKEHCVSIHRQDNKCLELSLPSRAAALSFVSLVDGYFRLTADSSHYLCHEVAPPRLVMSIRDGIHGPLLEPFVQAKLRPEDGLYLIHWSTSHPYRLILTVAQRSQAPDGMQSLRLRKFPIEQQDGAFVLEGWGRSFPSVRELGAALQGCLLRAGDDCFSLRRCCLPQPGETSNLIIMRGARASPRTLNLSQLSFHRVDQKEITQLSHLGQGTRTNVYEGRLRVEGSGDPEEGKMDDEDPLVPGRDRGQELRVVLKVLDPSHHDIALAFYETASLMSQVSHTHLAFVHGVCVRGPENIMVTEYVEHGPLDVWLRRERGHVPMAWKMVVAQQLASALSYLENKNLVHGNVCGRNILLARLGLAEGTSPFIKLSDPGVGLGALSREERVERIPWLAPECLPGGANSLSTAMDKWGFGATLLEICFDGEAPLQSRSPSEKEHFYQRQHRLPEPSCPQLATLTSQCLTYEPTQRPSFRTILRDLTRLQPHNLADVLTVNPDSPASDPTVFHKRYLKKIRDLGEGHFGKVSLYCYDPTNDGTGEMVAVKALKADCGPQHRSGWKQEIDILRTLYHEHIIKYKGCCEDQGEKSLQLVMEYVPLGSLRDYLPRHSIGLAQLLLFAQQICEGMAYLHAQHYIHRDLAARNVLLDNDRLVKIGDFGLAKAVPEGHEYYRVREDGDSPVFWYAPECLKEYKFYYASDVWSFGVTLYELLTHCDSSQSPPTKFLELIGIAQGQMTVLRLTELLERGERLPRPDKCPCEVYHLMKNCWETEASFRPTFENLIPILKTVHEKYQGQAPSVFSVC
Chain of JAK1 kinase activity on STAT3 in TF1 cells (P23458 whole entry): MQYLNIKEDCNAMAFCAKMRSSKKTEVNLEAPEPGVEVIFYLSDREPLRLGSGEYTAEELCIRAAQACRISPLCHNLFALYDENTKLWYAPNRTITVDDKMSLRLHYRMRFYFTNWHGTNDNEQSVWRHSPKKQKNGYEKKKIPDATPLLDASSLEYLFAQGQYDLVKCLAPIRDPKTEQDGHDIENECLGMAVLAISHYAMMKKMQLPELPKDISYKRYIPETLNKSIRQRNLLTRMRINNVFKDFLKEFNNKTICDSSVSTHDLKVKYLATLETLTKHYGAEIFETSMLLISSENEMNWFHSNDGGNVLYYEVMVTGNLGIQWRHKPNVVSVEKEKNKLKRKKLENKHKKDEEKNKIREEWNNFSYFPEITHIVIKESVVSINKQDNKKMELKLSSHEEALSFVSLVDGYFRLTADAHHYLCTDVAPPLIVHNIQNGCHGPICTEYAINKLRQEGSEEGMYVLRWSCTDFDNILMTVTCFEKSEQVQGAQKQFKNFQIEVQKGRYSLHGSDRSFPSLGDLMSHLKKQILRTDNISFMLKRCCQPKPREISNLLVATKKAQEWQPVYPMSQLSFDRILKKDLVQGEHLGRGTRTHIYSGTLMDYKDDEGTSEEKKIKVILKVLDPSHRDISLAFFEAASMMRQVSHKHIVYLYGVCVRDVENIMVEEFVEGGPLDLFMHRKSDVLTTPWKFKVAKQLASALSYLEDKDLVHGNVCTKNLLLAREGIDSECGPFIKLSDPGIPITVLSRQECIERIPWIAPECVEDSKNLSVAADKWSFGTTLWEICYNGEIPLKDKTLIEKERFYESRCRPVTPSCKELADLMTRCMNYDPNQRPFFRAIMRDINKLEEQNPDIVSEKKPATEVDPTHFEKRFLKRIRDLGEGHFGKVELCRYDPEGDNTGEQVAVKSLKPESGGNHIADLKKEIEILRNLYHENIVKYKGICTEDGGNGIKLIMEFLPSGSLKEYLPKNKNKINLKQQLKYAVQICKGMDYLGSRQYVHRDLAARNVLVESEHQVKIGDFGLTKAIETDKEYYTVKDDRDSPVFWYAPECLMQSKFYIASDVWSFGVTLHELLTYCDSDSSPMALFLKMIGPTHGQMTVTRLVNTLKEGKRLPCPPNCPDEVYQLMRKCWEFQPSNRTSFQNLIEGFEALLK
T2 sequence (P23458 875-1153 limits assumed): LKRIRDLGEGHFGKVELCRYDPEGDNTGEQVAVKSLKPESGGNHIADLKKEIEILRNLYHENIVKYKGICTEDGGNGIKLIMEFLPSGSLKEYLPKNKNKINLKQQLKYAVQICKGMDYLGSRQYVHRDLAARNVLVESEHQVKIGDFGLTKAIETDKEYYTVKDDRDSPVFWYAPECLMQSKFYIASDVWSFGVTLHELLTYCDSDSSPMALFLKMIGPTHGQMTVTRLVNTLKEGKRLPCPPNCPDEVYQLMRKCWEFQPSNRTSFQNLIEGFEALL
Chain of JAK2 kinase activity on STAT5 in TF1 cells (O60674 whole entry): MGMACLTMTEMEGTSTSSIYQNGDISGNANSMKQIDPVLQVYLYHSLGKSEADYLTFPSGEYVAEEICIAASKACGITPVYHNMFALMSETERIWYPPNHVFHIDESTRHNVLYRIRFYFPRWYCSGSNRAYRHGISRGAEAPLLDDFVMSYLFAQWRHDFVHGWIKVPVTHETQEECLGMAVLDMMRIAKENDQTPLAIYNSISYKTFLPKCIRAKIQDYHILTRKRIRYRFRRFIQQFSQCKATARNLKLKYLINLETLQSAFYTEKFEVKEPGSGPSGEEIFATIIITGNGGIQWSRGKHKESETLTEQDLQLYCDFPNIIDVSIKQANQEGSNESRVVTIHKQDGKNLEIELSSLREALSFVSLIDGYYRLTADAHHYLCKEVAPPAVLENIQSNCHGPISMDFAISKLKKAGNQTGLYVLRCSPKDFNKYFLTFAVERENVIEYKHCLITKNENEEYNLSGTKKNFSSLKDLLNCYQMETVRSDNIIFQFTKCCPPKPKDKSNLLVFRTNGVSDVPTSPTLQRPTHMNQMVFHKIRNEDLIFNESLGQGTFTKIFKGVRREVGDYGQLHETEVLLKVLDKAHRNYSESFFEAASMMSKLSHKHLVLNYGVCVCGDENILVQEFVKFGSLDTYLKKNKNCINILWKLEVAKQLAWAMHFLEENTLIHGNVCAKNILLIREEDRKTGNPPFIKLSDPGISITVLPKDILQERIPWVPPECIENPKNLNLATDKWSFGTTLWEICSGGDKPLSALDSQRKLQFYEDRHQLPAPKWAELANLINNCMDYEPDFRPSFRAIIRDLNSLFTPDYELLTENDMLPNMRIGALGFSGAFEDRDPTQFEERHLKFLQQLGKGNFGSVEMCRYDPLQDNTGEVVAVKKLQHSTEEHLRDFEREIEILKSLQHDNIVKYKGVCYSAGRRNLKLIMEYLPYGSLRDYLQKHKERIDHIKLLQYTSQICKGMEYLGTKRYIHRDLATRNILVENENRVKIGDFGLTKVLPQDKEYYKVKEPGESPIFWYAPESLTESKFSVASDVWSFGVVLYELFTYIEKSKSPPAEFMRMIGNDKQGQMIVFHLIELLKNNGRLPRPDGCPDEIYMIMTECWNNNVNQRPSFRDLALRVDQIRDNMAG
T4 sequence (P52333 822-1111 limits assumed): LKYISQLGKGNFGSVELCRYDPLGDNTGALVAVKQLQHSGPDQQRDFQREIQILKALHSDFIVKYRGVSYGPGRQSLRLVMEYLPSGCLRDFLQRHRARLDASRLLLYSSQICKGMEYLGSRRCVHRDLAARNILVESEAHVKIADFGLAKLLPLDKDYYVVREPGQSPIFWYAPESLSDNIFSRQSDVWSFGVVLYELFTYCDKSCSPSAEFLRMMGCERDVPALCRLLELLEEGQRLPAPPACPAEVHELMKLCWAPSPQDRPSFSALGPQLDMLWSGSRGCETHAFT
T3 sequence (O60674 849-1124 limits assumed): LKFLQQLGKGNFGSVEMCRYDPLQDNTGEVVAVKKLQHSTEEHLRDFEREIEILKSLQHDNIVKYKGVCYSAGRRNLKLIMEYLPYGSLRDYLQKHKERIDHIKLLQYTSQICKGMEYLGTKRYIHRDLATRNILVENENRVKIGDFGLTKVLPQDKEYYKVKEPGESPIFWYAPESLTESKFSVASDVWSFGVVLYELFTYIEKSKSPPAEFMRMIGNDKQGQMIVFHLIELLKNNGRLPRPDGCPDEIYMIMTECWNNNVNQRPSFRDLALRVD

As to `C[C@@H]1CN(c2nc(-c3cnn([C@H]4C[C@](C)(C#N)C4)c3)cn3ncc(F)c23)C(=O)[C@]1(C#N)C1CC1` [Example 308, (3R,4S)-1-(6-(1-((1r,3R)-3-cyano-3-methylcyclobutyl)-1H-pyrazol-4-yl)-3-fluoropyrazolo[1,5-a]pyrazin-4-yl)-3-cyclopropyl-4-methyl-2-oxopyrrolidine-3-carbonitrile], the IC50 in assay [1] is below 5 nM; in assay [2] it was below 100 nM; in assay [3], below 100 nM; in assay [4], below 100 nM; in assay [5], 50 to 100 nM; in assay [6] it was 100 to 1000 nM. For the same compound, the concentration for half-maximal inhibition (IC50) in assay [7] lay in the range of 100 to 1000 nM.
Turning to `C[C@@H]1CN(c2nc(-c3cnn([C@H]4C[C@@](F)(C#N)C4)c3)cn3ncc(F)c23)C(=O)[C@]1(C#N)C1CC1` [Example 309, (3R,4S)-1-(6-(1-((1r,3R)-3-cyano-3-fluorocyclobutyl)-1H-pyrazol-4-yl)-3-fluoropyrazolo[1,5-a]pyrazin-4-yl)-3-cyclopropyl-4-methyl-2-oxopyrrolidine-3-carbonitrile], the IC50 in assay [1] is below 5 nM; in assay [2] it was below 100 nM; in assay [3] it was below 100 nM; in assay [4], below 100 nM; in assay [5], above 100 nM; in assay [6], 1000 to 5000 nM. The IC50 in assay [7] lay within 5000 to 10000 nM.
For `C[C@@H]1CN(c2ccnn3cc(-c4cnn(C5CC6(C5)CN(C)C6)c4)cc23)C(=O)[C@]1(C#N)C1CC1` [Example 315, (3R,4S)-3-cyclopropyl-4-methyl-1-(6-(1-(2-methyl-2-azaspiro[3.3]heptan-6-yl)-1H-pyrazol-4-yl)pyrrolo[1,2-b]pyridazin-4-yl)-2-oxopyrrolidine-3-carbonitrile], the IC50 in assay [1] was below 5 nM; in assay [2], 100 to 1000 nM; in assay [3], 100 to 1000 nM; in assay [4] it was below 100 nM; in assay [5], 50 to 100 nM; in assay [6] it was 1000 to 5000 nM. Also, in assay [7], the IC50 was 1000 to 5000 nM.
In the case of `C[C@@H]1CN(c2ccnn3cc(-c4cnn(C5CN(C)C5)c4)cc23)C(=O)[C@]1(C#N)C1CC1` [Example 316, (3R,4S)-3-cyclopropyl-4-methyl-1-(6-(1-(1-methylazetidin-3-yl)-1H-pyrazol-4-yl)pyrrolo[1,2-b]pyridazin-4-yl)-2-oxopyrrolidine-3-carbonitrile], the IC50 in assay [1] is below 5 nM; in assay [2], 100 to 1000 nM; in assay [3] it was 100 to 1000 nM; in assay [4], 100 to 1000 nM; in assay [5], 50 to 100 nM; in assay [6] it was 5000 to 10000 nM. In assay [7], this compound came in with an IC50 of 5000 to 10000 nM.
As to `C[C@@H]1CN(c2ccnn3cc(-c4cnn(C5CC6(COC6)C5)c4)cc23)C(=O)[C@]1(C#N)C1CC1` [Example 319, (3R,4S)-1-(6-(1-(2-oxaspiro[3.3]heptan-6-yl)-1H-pyrazol-4-yl)pyrrolo[1,2-b]pyridazin-4-yl)-3-cyclopropyl-4-methyl-2-oxopyrrolidine-3-carbonitrile], the IC50 in assay [1] was below 5 nM; in assay [2], below 100 nM; in assay [3], below 100 nM; in assay [4], below 100 nM; in assay [5] it was 20 to 50 nM; in assay [6], 100 to 1000 nM. This compound also gave an IC50 in assay [7] of 100 to 1000 nM.
Take `C[C@@H]1CN(c2ccnn3cc(-c4cnn(C56CC(C#N)(C5)C6)c4)cc23)C(=O)[C@]1(C#N)C1CC1` [Example 320, (3R,4S)-1-(6-(1-(3-cyanobicyclo[1.1.1]pentan-1-yl)-1H-pyrazol-4-yl)pyrrolo[1,2-b]pyridazin-4-yl)-3-cyclopropyl-4-methyl-2-oxopyrrolidine-3-carbonitrile]: the IC50 in assay [1] is below 5 nM; in assay [2], 100 to 1000 nM; in assay [3], below 100 nM; in assay [4], below 100 nM; in assay [5], 50 to 100 nM; in assay [6], 1000 to 5000 nM. Moreover, in assay [7], the IC50 was 1000 to 5000 nM.
With `C[C@@H]1CN(c2ccnn3cc(-c4cn(C5COC5)nc4F)cc23)C(=O)[C@]1(C#N)C1CC1` [Example 321, (3R,4S)-3-cyclopropyl-1-(6-(3-fluoro-1-(oxetan-3-yl)-1H-pyrazol-4-yl)pyrrolo[1,2-b]pyridazin-4-yl)-4-methyl-2-oxopyrrolidine-3-carbonitrile], the IC50 in assay [1] was below 5 nM; in assay [2] it was 100 to 1000 nM; in assay [3] it was below 100 nM; in assay [4], 100 to 1000 nM; in assay [5] it was 50 to 100 nM; in assay [6] it was 1000 to 5000 nM. In addition, the IC50 in assay [7] was in the range of 1000 to 5000 nM.
On to `C[C@@H]1CN(c2ccnn3cc(-c4cnn(C5(CC#N)CC5)c4)cc23)C(=O)[C@]1(C#N)C1CC1` [Example 323], for which the IC50 in assay [1] is below 5 nM; in assay [2] it was below 100 nM; in assay [3], below 100 nM; in assay [4] it was below 100 nM; in assay [5], 50 to 100 nM; in assay [6], 1000 to 5000 nM. The IC50 in assay [7] fell in the range of 1000 to 5000 nM.
With `C[C@@H]1CN(c2ccnn3cc(-c4cnn(CC5(C#N)CC5)c4)cc23)C(=O)[C@]1(C#N)C1CC1` [Example 324, (3R,4S)-1-(6-(1-((1-cyanocyclopropyl)methyl)-1H-pyrazol-4-yl)pyrrolo[1,2-b]pyridazin-4-yl)-3-cyclopropyl-4-methyl-2-oxopyrrolidine-3-carbonitrile], the IC50 was below 5 nM in assay [1]; below 100 nM in assay [2]; below 100 nM in assay [3]; below 100 nM in assay [4]; 50 to 100 nM in assay [5]; 100 to 1000 nM in assay [6]. In assay [7], the IC50 lay in the range of 100 to 1000 nM.
`C[C@@H]1CN(c2ccnn3cc(-c4cnn([C@H]5C[C@@](F)(C#N)C5)c4)cc23)C(=O)[C@]1(C#N)C1CC1` [Example 326, (3R,4S)-1-(6-(1-((1r,3R)-3-cyano-3-fluorocyclobutyl)-1H-pyrazol-4-yl)pyrrolo[1,2-b]pyridazin-4-yl)-3-cyclopropyl-4-methyl-2-oxopyrrolidine-3-carbonitrile]: the IC50 is below 5 nM in assay [1]; below 100 nM in assay [2]; below 100 nM in assay [3]; below 100 nM in assay [4]; above 100 nM in assay [5]; 1000 to 5000 nM in assay [6]. Besides, the IC50 in assay [7] is 1000 to 5000 nM.
Regarding `C[C@@H]1CN(c2ccnn3cc(-c4cnn([C@H]5C[C@@H](C#N)C5)c4)cc23)C(=O)[C@]1(C#N)C1CC1` [Example 329, (3R,4S)-1-(6-(1-((1s,3S)-3-cyanocyclobutyl)-1H-pyrazol-4-yl)pyrrolo[1,2-b]pyridazin-4-yl)-3-cyclopropyl-4-methyl-2-oxopyrrolidine-3-carbonitrile], the IC50 in assay [1] was below 5 nM; in assay [2] it was below 100 nM; in assay [3], below 100 nM; in assay [4], below 100 nM; in assay [5], 20 to 50 nM; in assay [6], 100 to 1000 nM. The compound also registered an IC50 in assay [7] of 100 to 1000 nM.
On to `C[C@@H]1CN(c2ccnn3cc(-c4cnn([C@H]5C[C@H](C#N)C5)c4)cc23)C(=O)[C@]1(C#N)C1CC1` [Example 330, (3R,4S)-1-(6-(1-((1r,3R)-3-cyanocyclobutyl)-1H-pyrazol-4-yl)pyrrolo[1,2-b]pyridazin-4-yl)-3-cyclopropyl-4-methyl-2-oxopyrrolidine-3-carbonitrile], for which the IC50 is below 5 nM in assay [1]; below 100 nM in assay [2]; below 100 nM in assay [3]; below 100 nM in assay [4]; 20 to 50 nM in assay [5]; 1000 to 5000 nM in assay [6]. Besides, the IC50 in assay [7] lay in the range of 1000 to 5000 nM.
Take `C[C@@H]1CN(c2ccnn3cc(-c4cnn(C5CCN(C)CC5)c4)cc23)C(=O)[C@]1(C#N)C1CC1` [Example 331, (3R,4S)-3-cyclopropyl-4-methyl-1-(6-(1-(1-methylpiperidin-4-yl)-1H-pyrazol-4-yl)pyrrolo[1,2-b]pyridazin-4-yl)-2-oxopyrrolidine-3-carbonitrile]: the IC50 in assay [1] was below 5 nM; in assay [2], 100 to 1000 nM; in assay [3], below 100 nM; in assay [4], below 100 nM; in assay [5], 50 to 100 nM; in assay [6] it was 100 to 1000 nM. Further, in assay [7], the IC50 fell in the range of 1000 to 5000 nM.
